Reference: US20240300886A1, “ARYLCYCLOHEXYLAMINE DERIVATIVES AND THEIR USE IN THE TREATMENT OF PSYCHIATRIC DISORDERS” (GILGAMESH PHARMACEUTICALS, INC., priority 2021, published 2024)
Where two headings read alike, the source gives them in different places.

What was measured:
[1] = Stability in liver microsomes (Example 21), SD rat; type: in vitro ADME; settings: male, pH 7.4, 0.5 mg/mL protein
Procedure: (§1) General Procedure. Briefly, test compounds (final concentration 1 μM) were incubated in duplicate with liver microsomes from male animals of the indicated species (final protein concentration 0.5 mg/mL) in 50 mM sodium phosphate buffer (pH 7.4) with or without NADPH (1 mM). Total incubation volume was 500 μL. At 0, 5, 15, 30, and 60 min, aliquots of 50 μL were withdrawn, quenched with acetonitrile (150 μL), and analyzed for parent compound remaining using a fit-for-purpose LC-MS/MS method. Intrinsic clearance and half-life were calculated. Clearance values below zero were rounded to zero.

[2] = Stability in liver microsomes (Example 21), Gottingen minipig; type: in vitro ADME; settings: male, pH 7.4, 0.5 mg/mL protein
Procedure: as §1

[3] = Stability in liver microsomes (Example 21), CD-1 mouse; type: in vitro ADME; settings: male, pH 7.4, CD-1 Mouse liver microsomes, 0.5 mg/mL protein
Procedure: as §1

[4] = Comparative oral pharmacokinetics of 2R, 2S and 2-F-DCK in mice; type: in vivo, C57BL/6 mice; settings: 10 mg/kg po; for Cmax / half-life / AUC(0-t): male, C57BL/6; for half-life: read-out: t1/2 (po); for AUC(0-t): read-out: AUC0-last (po) (converted)
Procedure: Animals. Male C57BL/6 mice were used in these studies. Aminals were randomly assigned to treatment groups and were fasted for 4 h before dosing.
Drugs. Test compounds were dissolved in a vehicle consisting of normal saline, They were then administered orally (po) at a dose of 10 mg/kg (calculated based on freebase) and at a volume of 10 mL/kg body weight.
Sample Collection and Bioanalysis. Blood samples (approximately 60 μL) were collected under light isoflurane anesthesia (Surgivet®) from the retro orbital plexus at 0.08, 0.25, 0.5, 1, 2, 4, 8, and 24 h (4 animals per time point). Immediately after blood collection, plasma was harvested by centrifugation at 4,000 rpm for 10 min at 4° C. and samples were stored at −70±10° C. until bioanalysis. Following blood collection, animals were immediately sacrificed, the abdominal vena-cava was cut open, and the whole body was perfused from the heart using 10 mL of normal saline, and brain samples were collected from all animals. After isolation, brain samples were rinsed three times in ice-cold normal saline (for 5-10 seconds/rinse using ˜5-10 mL normal saline in disposable petri dish for each rinse) and dried on blotting paper. Brain samples were homogenized using ice-cold phosphate-buffered saline (pH 7.4). Total homogenate volume was three times the tissue weight. All homogenates were stored at −70±10° C. until bioanalysis. For bioanalysis, 25 μL aliquots of plasma/brain study samples or spiked plasma/brain calibration standards were added to individual pre-labeled micro-centrifuge tubes followed by 100 μL of an internal standard solution (glipizide, 500 ng/mL in acetonitrile) except for blanks, where 100 μL of acetonitrile was added. Samples were vortexed for 5 minutes and then centrifuged for 10 minutes at 4,000 rpm at 4° C. Following centrifugation, 100 μL of each clear supernatant was transferred to a 96 well plate and analyzed with a fit-for-purpose LC-MS/MS method, with authentic samples of each analyte used for calibration and identification.
Data Analysis. Pharmacokinetic parameters were estimated using the non-compartmental analysis tool of Phoenix® WinNonlin software (Ver 8.0).

[5] = Oral bioavailability in minipigs (plasma PK); type: in vivo, Bama minipigs; settings: for AUC(0-inf): male, Bama
Procedure: Animals. Male Bama minipigs were used in these studies. Animals were randomly assigned to treatment groups and were fasted overnight before dosing.
(§2) Drugs. Compound 2R was dissolved in a vehicle consisting of normal saline. It was then administered intravenously (iv) or orally (po) at a dose of 1 mg/kg (calculated based on freebase) and at a volume of 2 mL/kg body weight (n=3 per dosing route).
(§3) Sample Collection and Bioanalysis. Blood samples (approximately 500 μL) were collected under manual restraint from the cephalic vein at 0.08, 0.25, 0.5, 1, 2, 4, 8, and 24 h ([…]) into K2EDTA tubes and placed on wet ice. Immediately after blood collection, plasma was harvested by centrifugation at 3,000 g for 5 min at 4° C. within 15 minutes of collection and subsequently stored at −70±10° C. until bioanalysis. For bioanalysis, for diluted plasma samples, an aliquot of 2 μL sample was diluted with 18 μL blank matrix and the dilution factor was 10. For non-diluted samples, an aliquot of 20 μL sample was added with 300 μL internal standard (diclofenac, 60 ng/mL) in acetonitrile. The mixture was vortexed for 10 minutes and centrifuged at 5,800 rpm for 10 minutes. 90 μL of supernatant was transferred to a 96 well plate and analyzed with a fit-for-purpose LC-MS/MS method, with authentic samples of each analyte used for calibration and identification.
Data Analysis. Pharmacokinetic parameters were estimated using the non-compartmental analysis tool of Phoenix® WinNonlin software (Ver 8.2).

[6] = Oral bioavailability in monkeys (plasma PK); type: in vivo, Cynomolgus monkeys; settings: for AUC(0-inf): male, cynomolgus monkey
Procedure: Animals. Male Cynomolgus monkeys were used in these studies. Animals were randomly assigned to treatment groups and were fasted overnight before dosing.
as §2, §3
Data Analysis. Pharmacokinetic parameters were estimated using the non-compartmental analysis tool of Phoenix® a WinNonlin software (Ver 8.2).

CN[C@]1(c2ccc(F)cc2)CCCCC1=O [Compound 2S, (S)-2-(4-fluorophenyl)-2-(methylamino)cyclohexan-1-one]
microsomal CLint at 1 μM [1]: 14.1 µL/min/mg
microsomal CLint at 1 μM [2]: 20.3 µL/min/mg
microsomal CLint at 1 μM [3]: 3.5 µL/min/mg
Cmax ([4]; mouse brain): 3540 ng/g
half-life ([4]; mouse brain): 2.18 h
Cmax ([4]; mouse plasma): 1390 ng/mL
AUC(0-t) ([4]; mouse plasma): 940 ng·h/mL
half-life ([4]; mouse plasma): 1.48 h
AUC0-last (po) ([4]; mouse brain): 123388 ng·min/g

CN[C@@]1(c2ccc(F)cc2)CCCCC1=O [Compound 2R, (R)-2-(4-fluorophenyl)-2(methylamino)cyclohexan-1-one]
microsomal CLint at 1 μM [1]: 16.2 µL/min/mg
AUC(0-inf) ([5]; minipig plasma, 1 mg/kg iv, read-out: AUC0-inf (iv) (converted)): 566 ng·h/mL
AUC(0-inf) ([5]; minipig plasma, 1 mg/kg po, read-out: AUC0-inf (po) (converted)): 242 ng·h/mL
F ([5]; minipig plasma, 1 mg/kg): 42.7%
oral bioavailability (in words) ([5]; minipigs, 1 mg/kg): good
microsomal CLint at 1 μM [2]: 16.4 µL/min/mg
AUC(0-inf) ([6]; monkey plasma, 1 mg/kg iv, read-out: AUC0-inf (iv) (converted)): 964 ng·h/mL
AUC(0-inf) ([6]; monkey plasma, 1 mg/kg po, read-out: AUC0-inf (po) (converted)): 259 ng·h/mL
F ([6]; monkey plasma, 1 mg/kg): 27%
oral bioavailability (in words) ([6]; monkeys, 1 mg/kg): moderate
Cmax ([4]; mouse brain): 3280 ng/g
half-life ([4]; mouse brain): 2.97 h
Cmax ([4]; mouse plasma): 1180 ng/mL
AUC(0-t) ([4]; mouse plasma): 1120 ng·h/mL
half-life ([4]; mouse plasma): 1.38 h
AUC0-last (po) ([4]; mouse brain): 200464 ng·min/g
